PubChem BioAssay AID2060499 (Molecular Pharmacology Branch, DTP, NCI, 2025)

Tested on: 777334-354-R2-J4-PDC tumor spheroids with HUVEC/MSC, viability
Assay: Anticancer human tumor 777334-354-R2-J4-PDC patient-derived pancreatic adenocarcinoma cell line growth inhibition [GQUAD]
Details: for IC50: curve of first compound; for viability, T/C: stronger effect = lower value
From the text: DNA G-quadruplex Stabilizer Agents in Combinations in Complex Spheroids
A high-throughput screen of multi-cell type tumor spheroids was designed to identify active combinations of DNA G-quadruplex stabilizer agents and targeted small molecules. Complex spheroids include a stromal component modeled by human endothelial cells (HUVEC) and fibroblasts modeled by human mesenchymal stem cells (MSCs). The concentration ranges selected for each drug and investigational agent were based upon clinically achievable concentrations if the clinical Cmax of the agent was known.
Compounds. The drugs and investigational agents: pidnarulex (CX-5461; NSC782164), APTO-253 (NSC789042), BRACO-19 (NSC847499), peposertib (NSC802822), ceralasertib (NSC780249), elimusertib (NSC800525), camonsertib (NSC841442), AZD-1390 (NSC803789), olaparib (NSC753686), talazoparib (NSC767125), ART-558 (NSC835418), sotorasib (NSC818433), MRTX-1133 (NSC836407), SN-38 (NSC673596), topotecan (NSC609699), etoposide (NSC141540), doxorubicin (NSC123127), gemcitabine (NSC613327), 5-fluorouracil (NSC19893), paclitaxel (NSC125973), vemurafenib (NSC761431), panobinostat (NSC761190), R-306465 (JNJ-16241199; NSC773264), adavosertib (NSC754352), TP-3654 (NSC805149), carboplatin (NSC241240), KSQ-4279 (NSC840948), and staurosporine (NSC755774) were obtained from the National Cancer Institute (NCI) Developmental Therapeutics Program Chemical Repository (34). The FDA-approved anticancer drug set is available from the NCI Developmental Therapeutics Program. […] The stock solutions were prepared in dimethyl sulfoxide (DMSO, Sigma-Aldrich, St. Louis, MO, cat. D2650) at 800-fold the tested concentration and stored at -70 degrees C prior to their use. All drugs and investigational agents were tested over a range starting from a high concentration at or near the clinical Cmax and decreasing in half-log increments. If the clinical Cmax for an agent had not been determined, the highest concentration tested was 10 microM.
2.3 Cell Culture. All cells were maintained in an incubator at 37 degrees C and 5% CO2 with 95% humidity. The PDC lines were cultured according to standard operating procedures established by the NCI PDMR. All PDCs were thawed and cultured in Matrigel-coated flasks prepared with a working solution of 1X Ham's F-12 nutrient mix, without supplementation (Invitrogen, cat. 11765054), 100 U/mL penicillin-streptomycin (Invitrogen, cat. 15140122), and 2.5% Matrigel (Corning Inc., cat. 354248) for the first three passages. The 857933-349-R-J2-PDC line was cultured in 6C/Colon 1B media, which includes advanced DMEM/F-12 (Thermo Fisher Scientific, cat. 12634028), 10 mM HEPES (Thermo Fisher Scientific, cat. 15630080), 1X GlutaMAX supplement (Thermo Fisher Scientific, cat. 35050061), 0.1 mg/mL primocin (InvivoGen, cat. ant-pm-2), 10% defined fetal bovine serum, heat inactivated (HyClone Laboratories Inc., cat. SH30070.03HI), 50% L-WRN conditioned media (ATCC, cat. CRL-3276), 1.25 mM N-Acetyl-L-cysteine (Sigma-Aldrich, cat. A9165), 10 mM nicotinamide (Sigma-Aldrich, cat. N0636), 1X B-27 supplement (Thermo Fisher Scientific, cat. 17504044), 1X N-2 supplement (Thermo Fisher Scientific, cat. 17502048), 10 microM Y-27632 dihydrochloride (Tocris Bioscience, cat. 1254), and 50 ng/mL human EGF recombinant protein (Thermo Fisher Scientific, cat. PHG0311). The 485176-168-R4-J1-PDC line was cultured in Panc media, which includes all 6C/Colon 1B media components plus 100 ng/mL human FGF-10 (Thermo Fisher Scientific, cat. 100-26), 500 nM SB-431542 (Selleckchem, cat. S1067), and gastrin (Tocris, cat. 3006).
[…]

[1] = second compound 0.0316 µM, first compound 0.0316 µM
[2] = second compound 0.0316 µM, first compound 0.1 µM
[3] = second compound 0.0316 µM, first compound 0.316 µM
[4] = second compound 0.0316 µM, first compound 1 µM
[5] = second compound 0.0316 µM, first compound 3.16 µM
[6] = second compound 0.0316 µM, first compound 10 µM
[7] = second compound 0.1 µM, first compound 0.0316 µM
[8] = second compound 0.1 µM, first compound 0.1 µM
[9] = second compound 0.1 µM, first compound 0.316 µM
[10] = second compound 0.1 µM, first compound 1 µM
[11] = second compound 0.1 µM, first compound 3.16 µM
[12] = second compound 0.1 µM, first compound 10 µM
[13] = second compound 0.316 µM, first compound 0.0316 µM
[14] = second compound 0.316 µM, first compound 0.1 µM
[15] = second compound 0.316 µM, first compound 0.316 µM
[16] = second compound 0.316 µM, first compound 1 µM
[17] = second compound 0.316 µM, first compound 3.16 µM
[18] = second compound 0.316 µM, first compound 10 µM
[19] = second compound 1 µM, first compound 0.0316 µM
[20] = second compound 1 µM, first compound 0.1 µM
[21] = second compound 1 µM, first compound 0.316 µM
[22] = second compound 1 µM, first compound 1 µM
[23] = second compound 1 µM, first compound 3.16 µM
[24] = second compound 1 µM, first compound 10 µM
[25] = second compound 3.16 µM, first compound 0.0316 µM
[26] = second compound 3.16 µM, first compound 0.1 µM
[27] = second compound 3.16 µM, first compound 0.316 µM
[28] = second compound 3.16 µM, first compound 1 µM
[29] = second compound 3.16 µM, first compound 3.16 µM
[30] = second compound 3.16 µM, first compound 10 µM
[31] = second compound 10 µM, first compound 0.0316 µM
[32] = second compound 10 µM, first compound 0.1 µM
[33] = second compound 10 µM, first compound 0.316 µM
[34] = second compound 10 µM, first compound 1 µM
[35] = second compound 10 µM, first compound 3.16 µM
[36] = second compound 10 µM, first compound 10 µM
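Also: spheroids exposed to compounds for 7 days before readout.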

Structure (SMILES): C#Cc1c(F)ccc2cc(O)cc(-c3ncc4c(N5CC6CCC(C5)N6)nc(OCC56CCCN5CC(F)C6)nc4c3F)c12 (stereo unspecified) + Cc1[nH]c2ccc(F)cc2c1-c1nc2c3cccnc3c3ncccc3c2[nH]1
- IC50 (second compound 0.0316 µM): 81.4 nM
- IC50 (second compound 0.1 µM): 47.8 nM
- IC50 (second compound 0.316 µM): < 31.6 nM
- IC50 (second compound 1 µM): < 31.6 nM
- IC50 (second compound 3.16 µM): < 31.6 nM
- IC50 (second compound 10 µM): < 31.6 nM
- viability, T/C [1]: 54.6%
- viability, T/C [2]: 52.6%
- viability, T/C [3]: 37.2%
- viability, T/C [4]: 34.6%
- viability, T/C [5]: 25.9%
- viability, T/C [6]: 20%
- viability, T/C [7]: 56.3%
- viability, T/C [8]: 37.2%
- viability, T/C [9]: 32.2%
- viability, T/C [10]: 38.1%
- viability, T/C [11]: 26.3%
- viability, T/C [12]: 20.8%
- viability, T/C [13]: 51.2%
- viability, T/C [14]: 38.6%
- viability, T/C [15]: 34.9%
- viability, T/C [16]: 39.1%
- viability, T/C [17]: 21%
- viability, T/C [18]: 24.6%
- viability, T/C [19]: 48%
- viability, T/C [20]: 33.9%
- viability, T/C [21]: 27.6%
- viability, T/C [22]: 26.1%
- viability, T/C [23]: 21.9%
- viability, T/C [24]: 18.1%
- viability, T/C [25]: 26%
- viability, T/C [26]: 10.1%
- viability, T/C [27]: 9.09%
- viability, T/C [28]: 7.85%
- viability, T/C [29]: 10.6%
- viability, T/C [30]: 8.93%
- viability, T/C [31]: 16.9%
- viability, T/C [32]: 9.99%
- viability, T/C [33]: 10.5%
- viability, T/C [34]: 10.1%
- viability, T/C [35]: 8.96%
- viability, T/C [36]: 8.05%

Structure (SMILES): COc1cccc2c1C(=O)c1c(O)c3c(c(O)c1C2=O)CC(O)(C(=O)CO)CC3OC1CC(N)C(O)C(C)O1 (stereo unspecified) + Cc1[nH]c2ccc(F)cc2c1-c1nc2c3cccnc3c3ncccc3c2[nH]1
- IC50 (second compound 0.0316 µM): 915 nM
- IC50 (second compound 0.1 µM): 878 nM
- IC50 (second compound 0.316 µM): 923 nM
- IC50 (second compound 1 µM): 646 nM
- IC50 (second compound 3.16 µM): < 31.6 nM
- IC50 (second compound 10 µM): < 31.6 nM
- viability, T/C [1]: 102%
- viability, T/C [2]: 83.2%
- viability, T/C [3]: 80.3%
- viability, T/C [4]: 47.1%
- viability, T/C [5]: 22.8%
- viability, T/C [6]: 15%
- viability, T/C [7]: 93.3%
- viability, T/C [8]: 80.5%
- viability, T/C [9]: 69.6%
- viability, T/C [10]: 49.2%
- viability, T/C [11]: 25.2%
- viability, T/C [12]: 14.9%
- viability, T/C [13]: 74.8%
- viability, T/C [14]: 82.6%
- viability, T/C [15]: 71.2%
- viability, T/C [16]: 46.8%
- viability, T/C [17]: 28.4%
- viability, T/C [18]: 17.4%
- viability, T/C [19]: 74.8%
- viability, T/C [20]: 75.8%
- viability, T/C [21]: 61.1%
- viability, T/C [22]: 42.9%
- viability, T/C [23]: 22.5%
- viability, T/C [24]: 13.6%
- viability, T/C [25]: 40.4%
- viability, T/C [26]: 27.8%
- viability, T/C [27]: 24.8%
- viability, T/C [28]: 16.7%
- viability, T/C [29]: 13.9%
- viability, T/C [30]: 9.55%
- viability, T/C [31]: 32%
- viability, T/C [32]: 23%
- viability, T/C [33]: 22.6%
- viability, T/C [34]: 16.5%
- viability, T/C [35]: 14.9%
- viability, T/C [36]: 10.9%

Structure (SMILES): Nc1ccn(C2OC(CO)C(O)C2(F)F)c(=O)n1 (stereo unspecified) + Cc1[nH]c2ccc(F)cc2c1-c1nc2c3cccnc3c3ncccc3c2[nH]1
- IC50 (second compound 0.0316 µM): 931 nM
- IC50 (second compound 0.1 µM): 1140 nM
- IC50 (second compound 0.316 µM): 809 nM
- IC50 (second compound 1 µM): 466 nM
- IC50 (second compound 3.16 µM): < 31.6 nM
- IC50 (second compound 10 µM): < 31.6 nM
- viability, T/C [1]: 88%
- viability, T/C [2]: 67.5%
- viability, T/C [3]: 65%
- viability, T/C [4]: 46.3%
- viability, T/C [5]: 41.6%
- viability, T/C [6]: 34%
- viability, T/C [7]: 90.2%
- viability, T/C [8]: 74%
- viability, T/C [9]: 69.2%
- viability, T/C [10]: 47.6%
- viability, T/C [11]: 41.3%
- viability, T/C [12]: 32.1%
- viability, T/C [13]: 75.5%
- viability, T/C [14]: 84.7%
- viability, T/C [15]: 59.4%
- viability, T/C [16]: 49.7%
- viability, T/C [17]: 39.8%
- viability, T/C [18]: 35.5%
- viability, T/C [19]: 73.5%
- viability, T/C [20]: 68%
- viability, T/C [21]: 52.6%
- viability, T/C [22]: 40.7%
- viability, T/C [23]: 39.4%
- viability, T/C [24]: 29.3%
- viability, T/C [25]: 36.6%
- viability, T/C [26]: 31.7%
- viability, T/C [27]: 30.7%
- viability, T/C [28]: 13.8%
- viability, T/C [29]: 13.6%
- viability, T/C [30]: 12.9%
- viability, T/C [31]: 30%
- viability, T/C [32]: 26.9%
- viability, T/C [33]: 16.2%
- viability, T/C [34]: 10.3%
- viability, T/C [35]: 8.66%
- viability, T/C [36]: 7.59%
